Measured values published in PMC6269736, “Antimalarial Activity of 4-Metoxychalcones: Docking Studies as Falcipain/Plasmepsin Inhibitors, ADMET and Lipophilic Efficiency Analysis to Identify a Putative Oral Lead Candidate” (Molecules, 2013).
Where two headings read alike, the source gives them in different places.

Key:
[1] = tested on: P. falciparum clone W2 (chloroquine-resistant); experiment: In vitro antiplasmodial activity, Giemsa-stained smear parasitaemia after 48 h; type: cell-based, Plasmodium falciparum; settings: for IC50: Plasmodium falciparum; for SI (selectivity index): SI = LC50 HeLa/IC50 Plasmodium falciparum
Experimental: The human red blood cells and plasma were ceded by the Fundação Hemominas-Hemonúcleo Divinópolis. The synchronization of the parasites was achieved by sorbitol treatment and parasitaemia was determined microscopically in Giemsa-stained smears.
Briefly, ring-stage parasites in sorbitol-synchronized blood cultures were added to 96-well culture plates with 2% parasitaemia and 2% haematocrit and then incubated with the test compounds. The compounds were diluted in complete media, from 10 mg/mL stock solutions in DMSO, at various concentrations (0.1–30 µM). After 48 h incubation, Giemsa-stained blood smears were taken for microscopic evaluation of parasitaemia. All experiments were performed in triplicate.

in vitro = type: cell-based; settings: human
Experimental: The cytotoxicity of the compounds was assessed with the HeLa human cell line (cervix adenocarcinoma ATCC# CCl-2) using the MTT (3-(4,5-dimethylthiazol-2-yl)-2,5-diphenyltetrazolium bromide) (Sigma, St. Louis, MO, USA) colorimetric method. Briefly, the cells were plated in 96-well plates (1 × 10^5 cells/well) and incubated for 24 h at 37 °C in a humidified atmosphere with 5% CO2. After 24 h, the wells were washed with culture medium (RPMI + 10% inactivated fetal calf serum + 2 mM L-glutamine) and incubated with the compounds at various concentrations (0.05 to 500 µM). After 48 h incubation, the plates were treated with MTT. The colorimetric reading was performed in a microplate reader Spectramax M5e (Molecular Devices, Sunnyvale, CA, USA) at 550 nm. Cytotoxicity was scored as the percentage reduction in absorbance versus untreated control cultures. All experiments were performed in triplicate. […] The IC50 and LC50 values were calculated using OriginPro8.0 (OriginLab Corporation, Northampton, MA, USA) software. A selectivity index (SI), corresponding to the ratio between the cytotoxic and antiparasitic activities of each compound, was calculated as follows: SI = LC50 HeLa/IC50 Plasmodium falciparum

[2] = P. falciparum W2, 48 h incubation, triplicate, mean ± spread, read-out: IC50, in vitro antiplasmodial activity
[3] = P. falciparum W2, from IC50, read-out: pIC50 (converted)

Row | Compound | IC50 [1, 2] [µM] | IC50 [1, 3] [µM] | SI (selectivity index) [1] | CC50 at 48 h (in vitro) [µM] | IC50 ([1]; W2, 48 h, read-out: IC50, in vitro antiplasmodial activity) [µM] | IC50 ([1]; W2, read-out: pIC50 (converted)) [µM]
1 | COc1ccc(/C=C/C(=O)c2ccccc2)cc1S(=O)(=O)Nc1ccccc1 [Compound 1c] | 2.03 ± 0.28 | 2.03 | 5.7 | 11.5 ± 0.23 | – | –
2 | COc1ccc(/C=C/C(=O)c2ccccc2)cc1S(=O)(=O)N(C)C [Compound 1b] | 5.79 ± 0.12 | 5.79 | 3.6 | 20.7 ± 1.62 | – | –
3 | CCN(CC)CCCC(C)Nc1ccnc2cc(Cl)ccc12 (centres unmarked) [CQ, chloroquine, reference compound] | – | – | – | – | 0.45 ± 0.04 | 0.454
4 | COc1ccc(/C=C/C(=O)c2ccccc2)cc1S(=O)(=O)N1CCOCC1 [Compound 1a] | 2.06 ± 0.05 | 2.07 | 9.0 | 18.6 ± 1.26 | – | –

Continued, in another order:

Row | IC50 [1, 2] [µM] | IC50 [1, 3] [µM] | Compound | SI (selectivity index) [1] | CC50 at 48 h (in vitro) [µM] | IC50 ([1]; W2, 48 h, read-out: IC50, in vitro antiplasmodial activity) [µM] | IC50 ([1]; W2, read-out: pIC50 (converted)) [µM]
5 | 2.07 ± 0.22 | 2.07 | COc1ccc(/C=C/C(=O)c2ccccc2)cc1S(=O)(=O)N1CCCC1 [Compound 1i] | 4.4 | 9.18 ± 1.51 | – | –
6 | 1.96 ± 0.02 | 1.96 | COc1ccc(/C=C/C(=O)c2ccccc2)cc1S(=O)(=O)NCc1ccccc1 [Compound 1h] | 4.8 | 9.42 ± 2.09 | – | –
7 | 2.83 ± 0.21 | 2.82 | COc1ccc(/C=C/C(=O)c2ccccc2)cc1S(=O)(=O)Nc1ccc(Cl)cc1 [Compound 1e] | 3.7 | 10.5 ± 2.27 | – | –
8 | 3.64 ± 0.4 | 3.64 | COc1ccc(NS(=O)(=O)c2cc(/C=C/C(=O)c3ccccc3)ccc2OC)cc1 [Compound 1d] | 3.0 | 11.1 ± 1.96 | – | –
9 | 11 ± 0.57 | 11 | CCN(CC)S(=O)(=O)c1cc(/C=C/C(=O)c2ccccc2)ccc1OC [Compound 1g] | 1.9 | 20.7 ± 1.6 | – | –
10 | 4.33 ± 0.06 | 4.33 | COc1ccc(/C=C/C(=O)c2ccccc2)cc1S(=O)(=O)Nc1ccc(Cl)c(Cl)c1 [Compound 1f] | 4.4 | 19 ± 0.43 | – | –
